Test results as given in PubChem BioAssay AID1963426 (Molecular Pharmacology Branch, DTP, NCI, 2024).

Tested on: 186277-243-T-J2-PDC complex spheroid growth, % test/control
Test: Anticancer human tumor 186277-243-T-J2-PDC patient-derived colon adenocarcinoma cell line growth inhibition [Asc]
Conditions: for IC50: curve of first compound; for viability, T/C: stronger effect = lower value; active = viability on the fitted dose curve at most 10% of control; inactive = the rest
Description: Multicellular complex tumor spheroid response to apoptosis pathway targeting inhibitors Alrizomadlin, Pelcitoclax, and Dasminapant in combination with a variety of drugs and investigational agents in selected tumor cell lines
The MDM2 inhibitor alrizomadlin, the Bcl-2/Bcl-xL inhibitor pelcitoclax, and the IAPs inhibitor dasminapant were evaluated both individually and in combination with standard of care and investigational anticancer small molecules within a complex spheroid model of solid tumors. . Complex spheroids include a stromal component modeled by human endothelial cells (HUVEC) and fibroblasts modeled by human mesenchymal stem cells (MSCs). The concentration ranges selected for each drug and investigational agent were based upon clinically achievable concentrations if the clinical Cmax of the agent was known.
Compounds. The drugs and investigational agents: alrizomadlin (APG-115; NSC831270), pelcitoclax (APG-1252; NSC835773), dasminapant (APG-1387;NSC834197), TAK-243 (NSC785004), copanlisib (NSC809693), olaparib (NSC753686), talazoparib (NSC767125), cobimetinib (NSC 768068), eltanexor (KPT-8602, NSC 794443), abemaciclib (NSC 768073), sotorasib (NSC818433), adagrasib (NSC 831453), MRTX-1133 (NSC 836407), Iadademestat (ORY1001, NSC 806812), and RMC-4630 (NSC839698), were obtained from the NCI Developmental Therapeutics Program Chemical Repository. The FDA-approved anticancer drug set is available from the Developmental Therapeutics Program at https://dtp.cancer.gov/organization/dscb/obtaining/available plates.htm. […] The stock solutions were prepared in dimethyl sulfoxide (DMSO, Sigma-Aldrich, St. Louis, MO, cat. D2650) at 800-fold the tested concentration and stored at -70 degrees C prior to their use. All drugs and investigational agents were tested over a range starting from a high concentration at or near the clinical Cmax and decreasing in half-log increments. If the clinical Cmax for an agent had not been determined, the highest concentration tested was 10 microM.
The patient-derived cancer (PDC) cell lines include five colon adenocarcinomas: 186277-243-T-J2-PDC, 616215-338-R-J1-PDC, 439559-082-T-J2-PDC, 463943-066-T-J2-PDC, and 519858-162-T-J1-PDC; three pancreatic carcinomas: 323965-272-R-J2-PDC, 521955-158-R6-J3-PDC, and 521955-158-R2-J5-PDC; two uterine sarcomas: 327498-152-R-J2-PDC and 993429-296-R-J1-PDC; two rhabdomyosarcomas: 755483-174-R-J1-PDC and 772245-204-R-J1-PDC; two soft tissue sarcomas: 126254-015-R-J1-PDC and 494315-158-R-J1-PDC; two malignant fibrous histiocytomas: 317291-083-R-J1-PDC and 596521-263-R-J1-PDC; two breast carcinomas: 171881-019-R-J1-PDC and 885512-296-R-J2-PDC; and one ovarian carcinoma: 6556581-035-R-J-PDC were obtained from the NCI PDMR, (https://pdmr.cancer.gov). The established cell lines HSSY-2 synovial sarcoma (RRID:CVCL 8719), SYO-1 synovial sarcoma (RRID:CVCL_7146), MPNST malignant peripheral neural sheath tumor were obtained from the Sloan Kettering Institute. The following established cell lines were purchased from the American Type Culture Collection (ATCC, Manassas, VA), Sor the received from the NCI repository:, PANC-1 pancreatic carcinoma (CRL-1469, RRID:CVCL_0480), OVCAR-5 ovarian carcinoma (RRID:CVCL_1628), OVCAR-8 ovarian carcinoma (RRID:CVCL_1629), , MCF-7 breast carcinoma (CRL-12584, RRID:CVCL_0031), MDA-MB-231 breast carcinoma (CRL-12532, RRID:CVCL_0062), NCI-H1876 small cell lung carcinoma (CRL-5902, RRID:CVCL_1503), NCI-H510A small cell lung carcinoma (HTB-184, RRID:CVCL_1565), NCI-H1417 (CRL-5869, RRID:CVCL_1469), and NCI-H196 small cell lung carcinoma (CRL-5823, RRID:CVCL_1509). Dr. Peter Houghton (Greehey Children's Cancer Research Institute, University of Texas Health Science Center, San Antonio, TX) provided Rh-18 rhabdomyosarcoma (RRID:CVCL_1659). Pooled donor human umbilical vein endothelial cells (HUVEC, Lonza, cat. CC-2519) and human mesenchymal stem cells (hMSC, Lonza, cat. PT-2501) were purchased from Lonza (Walkersville, MD).
Cell Culture. […]
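Note: spheroids exposed to agents for 7 days.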
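Throughout, for viability, T/C: 100% = DMSO vehicle control wells.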

Cn1ncnc1[C@H]1c2n[nH]c(=O)c3cc(F)cc(c23)N[C@@H]1c1ccc(F)cc1 + CNC(C)C(=O)NC1CN(S(=O)(=O)c2cccc(S(=O)(=O)N3CCC4CCC(C(=O)NC(c5ccccc5)c5ccccc5)N4C(=O)C(NC(=O)C(C)NC)C3)c2)CCC2CCC(C(=O)NC(c3ccccc3)c3ccccc3)N2C1=O
> 100 nM: IC50 (second compound 0.01 µM) | IC50 (second compound 0.0316 µM) | IC50 (second compound 0.1 µM) | IC50 (second compound 0.316 µM) | IC50 (second compound 1 µM)
inactive: viability, T/C (second compound 0.01 µM, first compound 0.000316 µM) 100% | viability, T/C (second compound 0.01 µM, first compound 0.001 µM) 97.5% | viability, T/C (second compound 0.01 µM, first compound 0.00316 µM) 106% | viability, T/C (second compound 0.01 µM, first compound 0.01 µM) 119% | viability, T/C (second compound 0.01 µM, first compound 0.0316 µM) 144% | viability, T/C (second compound 0.01 µM, first compound 0.1 µM) 144% | viability, T/C (second compound 0.0316 µM, first compound 0.000316 µM) 108% | viability, T/C (second compound 0.0316 µM, first compound 0.001 µM) 103% | viability, T/C (second compound 0.0316 µM, first compound 0.00316 µM) 129% | viability, T/C (second compound 0.0316 µM, first compound 0.01 µM) 124% | viability, T/C (second compound 0.0316 µM, first compound 0.0316 µM) 133% | viability, T/C (second compound 0.0316 µM, first compound 0.1 µM) 155% | viability, T/C (second compound 0.1 µM, first compound 0.000316 µM) 121% | viability, T/C (second compound 0.1 µM, first compound 0.001 µM) 115% | viability, T/C (second compound 0.1 µM, first compound 0.00316 µM) 124% | viability, T/C (second compound 0.1 µM, first compound 0.01 µM) 127% | viability, T/C (second compound 0.1 µM, first compound 0.0316 µM) 146% | viability, T/C (second compound 0.1 µM, first compound 0.1 µM) 155% | viability, T/C (second compound 0.316 µM, first compound 0.000316 µM) 101% | viability, T/C (second compound 0.316 µM, first compound 0.001 µM) 101% | viability, T/C (second compound 0.316 µM, first compound 0.00316 µM) 108% | viability, T/C (second compound 0.316 µM, first compound 0.01 µM) 128% | viability, T/C (second compound 0.316 µM, first compound 0.0316 µM) 147% | viability, T/C (second compound 0.316 µM, first compound 0.1 µM) 159% | viability, T/C (second compound 1 µM, first compound 0.000316 µM) 91.3% | viability, T/C (second compound 1 µM, first compound 0.001 µM) 115% | viability, T/C (second compound 1 µM, first compound 0.00316 µM) 104% | viability, T/C (second compound 1 µM, first compound 0.01 µM) 131% | viability, T/C (second compound 1 µM, first compound 0.0316 µM) 130% | viability, T/C (second compound 1 µM, first compound 0.1 µM) 149%

NC1CCC(NC2CC2c2ccccc2)CC1 (stereo not given) + CCN1C(C(=O)NC23CCC(C(=O)O)(CC2)CC3)C(c2cccc(Cl)c2F)C2(C(=O)Nc3cc(Cl)ccc32)C12CCCCC2
inactive: viability, T/C (second compound 0.03 µM, first compound 0.000316 µM) 111% | viability, T/C (second compound 0.03 µM, first compound 0.001 µM) 138% | viability, T/C (second compound 0.03 µM, first compound 0.00316 µM) 112% | viability, T/C (second compound 0.03 µM, first compound 0.01 µM) 106% | viability, T/C (second compound 0.03 µM, first compound 0.0316 µM) 123% | viability, T/C (second compound 0.03 µM, first compound 0.1 µM) 113% | viability, T/C (second compound 0.0949 µM, first compound 0.000316 µM) 114% | viability, T/C (second compound 0.0949 µM, first compound 0.001 µM) 132% | viability, T/C (second compound 0.0949 µM, first compound 0.00316 µM) 134% | viability, T/C (second compound 0.0949 µM, first compound 0.01 µM) 131% | viability, T/C (second compound 0.0949 µM, first compound 0.0316 µM) 131% | viability, T/C (second compound 0.0949 µM, first compound 0.1 µM) 141% | viability, T/C (second compound 0.3 µM, first compound 0.000316 µM) 93.4% | viability, T/C (second compound 0.3 µM, first compound 0.001 µM) 97.8% | viability, T/C (second compound 0.3 µM, first compound 0.00316 µM) 94.9% | viability, T/C (second compound 0.3 µM, first compound 0.01 µM) 93.3% | viability, T/C (second compound 0.3 µM, first compound 0.0316 µM) 92.9% | viability, T/C (second compound 0.3 µM, first compound 0.1 µM) 91.3% | viability, T/C (second compound 0.949 µM, first compound 0.000316 µM) 66.3% | viability, T/C (second compound 0.949 µM, first compound 0.001 µM) 69.2% | viability, T/C (second compound 0.949 µM, first compound 0.00316 µM) 66.1% | viability, T/C (second compound 0.949 µM, first compound 0.01 µM) 65.8% | viability, T/C (second compound 0.949 µM, first compound 0.0316 µM) 67.9% | viability, T/C (second compound 0.949 µM, first compound 0.1 µM) 65.7% | viability, T/C (second compound 3 µM, first compound 0.000316 µM) 42.1% | viability, T/C (second compound 3 µM, first compound 0.001 µM) 43.6% | viability, T/C (second compound 3 µM, first compound 0.00316 µM) 44.1% | viability, T/C (second compound 3 µM, first compound 0.01 µM) 39.5% | viability, T/C (second compound 3 µM, first compound 0.0316 µM) 41.4% | viability, T/C (second compound 3 µM, first compound 0.1 µM) 42.8%
> 100 nM: IC50 (second compound 0.03 µM) | IC50 (second compound 0.0949 µM) | IC50 (second compound 0.3 µM) | IC50 (second compound 0.949 µM)
< 0.316 nM: IC50 (second compound 3 µM)
